From patent publication US20070054887A1, “Methods for treating bladder dysfunction” (BioXell S.p.A, priority 2003, published 2007)
“And” between values parts separate entries of the source, which are not always exact repeats. Equal values may be shown once. Read-outs that look alike come from different tables or passages of the source.

What was measured:
[1] = test system: human bladder cells; assay: inhibition of basal human bladder cell growth; type: cell-based; settings: for IC50: Homo sapiens
[2] = maximum tolerated dose (MTD) in rats; type: in vivo
Text: The maximum tolerated dose (MTD) in rats is also listed for each compound.

[3] = test system: rats with CYP-induced cystitis; assay: cyclophosphamide (CYP) induced chronic cystitis in rats: conscious cystometry; type: in vivo, Wistar rats; parameters: amplitude of NVBC (amplitude of non-voiding bladder contraction): unit not given here
Text: The rat model of chemical cystitis induced by intraperitoneal injection of CYP has been well accepted. CYP is used in clinical practice in the treatment of a number of malignant tumors. One of its metabolites, acrolein, is excreted in urine in large concentrations causing hemorrhagic cystitis associated with symptoms of urinary frequency, urgency and pelvic pain. The inflammatory process is characterized by changes in gross histology of bladder, increase in number and distribution of inflammatory cell infiltrates (mast cells, macrophage, PMNs), cyclo-oxygenase-2 expression and prostaglandin production, growth factor and cytokine production. The rat model of chemical cystitis closely resembles interstitial cystitis, a chronic, painful urinary bladder syndrome and has been used for the testing of therapeutic agents in the past.
This model was used to test the effects of 1,25-dihydroxyvitamin D3 analogue in rats with CYP-induced cystitis. The effects of the treatment on the cystometric parameters in a conscious freely moving rat with CYP-induced cystitis were monitored. The following cystometric parameters were recorded in each animal:
Animals: Wistar rats weighing 125-175 g were used. […] Following recovery all animals received three intraperitoneal injections of CYP and subsequently were divided into the treatment and sham control groups.
Treatment group: Rats treated with oral 1,25-dihydroxyvitamin D3 analogue 1,3-di-O-acetyl-1,25-dihydroxy-16,23Z-diene-26,27-hexafluoro-19-nor-cholecalciferol (“Compound C”) for 14 days (daily dose of 0.1 μg/kg) [drawing 138]
Cystometry was performed 24 hours following the last dose of the drug or vehiculum on awake freely moving animals.
A lower midline abdominal incision was performed under general inhalation anesthesia (isoflurine with O2) and polyethylene tubing (PE-50, Clay Adams, Parsippany, N.J.) with the end flared by heat was inserted into the dome of the bladder and secured in place with a 6-0 prolene purse string suture. The distal end of the tubing was heat-sealed, tunneled subcutaneously and externalized at the back of the neck, out of the animal's reach. Abdominal and neck incisions were closed with 4-0 nylon sutures.
Following recovery (5 days) subject animals underwent three intraperitoneal injections of CYP (Sigma Chemical, St. Louis, Mo.; 75 mg/kg each, intraperitoneal) over the period of nine days. On the tenth day following the first CYP injection the sham control animals received the vehicle only, whereas the experimental group were treated with the 1,25-dihydroxyvitamin D3 analogue 1,3-di-O-acetyl-1,25-dihydroxy-16,23Z-diene-26,27-hexafluoro-19-nor-cholecalciferol “Compound C” (delivered using gavage). Two weeks following the initiation of the treatment animals underwent a conscious cystometrogram to assess the function of the urinary bladder.
An animal was placed unrestrained in a cage and the catheter was connected via a T-tube to a pressure transducer (Grass® Model PT300, West Warwick, R.I.) and microinjection pump (Harvard Apparatus 22, South Natick, Mass.). A 0.9% saline solution was infused at room temperature into the bladder at a rate of 10 ml/h. Intravesical pressure was recorded continuously using a Neurodata Acquisition System (Grass® Model 15, Astro-Med, Inc, West Warwick, R.I.). At least three reproducible micturition cycles were recorded after the initial stabilization period of 25-30 min.

[4] = test system: BPH cells; settings: previously found; also counteracted mitogenic activity of KGF and IGFI; cited from earlier work
[5] = drug treated animals versus vehicle, 0.1 μg/kg oral 14 days
[6] = oral 0.1 μg/kg daily for 14 days, individual rats, three micturition cycles each

Structure (SMILES) | IC50 [1] [µM] | MTD ([2]; rat, in vivo, read-out: MTD) [µg/kg] | other results
CC(=O)OC1C/C(=C/C=C2\CCC[C@@]3(C)C2CCC3C2(CC#CC(OC(C)=O)(C(F)(F)F)C(F)(F)F)CC2)C[C@@H](OC(C)=O)C1 (stereo partly shown) [1,3,25-Tri-O-acetyl-1,25-dihydroxy-20-cyclopropyl-23-yne-26,27-hexafluoro-19-nor-cholecalciferol] | 0.0398 | 10 | 
CC(=O)OC1C/C(=C/C=C2\CCC[C@]3(C)C(C(C)CC#CC(C)(C)O)=CCC23)C[C@@H](OC(C)=O)C1 (stereo partly shown) [1,3-Di-O-Acetyl-1,25-dihydroxy-16-ene-23-yne-19-nor-cholecalciferol] | 186 | 30 | 
C=C1/C(=C\C=C2/CCC[C@]3(C)C(C(C)C/C=C/C(C)(C)O)=CCC23)CC(OC(C)=O)C[C@@H]1OC(C)=O (stereo partly shown) [1,3-Di-O-acetyl-1,25-dihydroxy-16,23E-diene-cholecalciferol] | 4.17e-06 | 3 | 
CC(=O)OC1C/C(=C/C=C2\CCC[C@]3(C)C(C(C)CCCC(C)(C)O)=CCC23)C[C@@H](OC(C)=O)C1 (stereo partly shown) [1,3-Di-O-acetyl-1,25-dihydroxy-16-ene-19-nor-cholecalciferol] | 0.000631 | 3 | 
C=C1/C(=C\C=C2/CCC[C@]3(C)C(C(C)CC#CC(O)(C(F)(F)F)C(F)(F)F)=CCC23)CC(OC(C)=O)C[C@@H]1OC(C)=O (stereo partly shown) [1,3-Di-O-acetyl-1,25-dihydroxy-16-ene-23-yne-26,27-hexafluoro-cholecalciferol] | 0.002 | 10 | 
C=C1/C(=C\C=C2/CCC[C@]3(C)C(C(C)CC#CC(C)(C)O)=CCC23)CC(OC(C)=O)C[C@@H]1OC(C)=O (stereo partly shown) [1,3-Di-O-acetyl-1,25-dihydroxy-16-ene-23-yne-cholecalciferol] | 5.01e-05 | 10 | 
C=C1/C(=C\C=C2/CCC[C@]3(C)C(C(C)CCCC(C)(C)O)=CCC23)CC(OC(C)=O)C[C@@H]1OC(C)=O (stereo partly shown) [1,3-Di-O-acetyl-1,25-dihydroxy-16-ene-cholecalciferol] | 0.000224 | 1 | 
CC(=O)OC1C/C(=C/C=C2\CCC[C@@]3(C)C2CCC3C2(CC#CC(O)(C(F)(F)F)C(F)(F)F)CC2)C[C@@H](OC(C)=O)C1 (stereo partly shown) [1,3-Di-O-acetyl-1,25-dihydroxy-20-cyclopropyl-23-yne-26,27-hexafluoro-19-nor-cholecalciferol] | 0.0012 | 10 | 
C=C1C(=CC=C2CCCC3(C)C2CCC3C2(CC#CC(C)(C)O)CC2)CC(OC(C)=O)CC1OC(C)=O (stereo not shown) [1,3-Di-O-acetyl-1,25-dihydroxy-20-cyclopropyl-23-yne-cholecalciferol] |  |  | −Log IC50 ([1]; basal human bladder cell growth, cells not stimulated with testosterone): >2; MTD [2]: 30 µg/kg
CC(=O)OC1C/C(=C/C=C2\CCC[C@@]3(C)C2CCC3C2(C/C=C/C(O)(C(F)(F)F)C(F)(F)F)CC2)C[C@@H](OC(C)=O)C1 (stereo partly shown) [1,3-Di-O-acetyl-1,25-dihydroxy-20-cyclopropyl-23E-ene-26,27-hexafluoro-19-nor-cholecalciferol] | 0.00158 | 0.3 | 
CC(=O)OC1C/C(=C/C=C2\CCC[C@@]3(C)C2CCC3C2(C/C=C\C(O)(C(F)(F)F)C(F)(F)F)CC2)C[C@@H](OC(C)=O)C1 (stereo partly shown) [1,3-Di-O-acetyl-1,25-dihydroxy-20-cyclopropyl-23Z-ene-26,27-hexafluoro-19-nor-cholecalciferol] | 0.2 | 10 | 
C=C1/C(=C\C=C2/CCC[C@@]3(C)C2CCC3C2(CCCC(C)(C)O)CC2)CC(OC(C)=O)C[C@@H]1OC(C)=O (stereo partly shown) [1,3-Di-O-acetyl-1,25-dihydroxy-20-cyclopropyl-cholecalciferol] | 0.398 | 30 | 
C=C1/C(=C\C=C2/CCC[C@@]3(C)C2CCC3C(C)CC#CC(C)(C)O)CC(OC(C)=O)C[C@@H]1OC(C)=O (stereo partly shown) [1,3-Di-O-acetyl-1,25-dihydroxy-23-yne-cholecalciferol] | < 10000 | 1 | 
CC(=O)O[C@@H]1CC(=C/C=C2\CCC[C@]3(C)C([C@H](C)CCC(=O)C(C)(C)O)=CCC23)C[C@@H](OC(C)=O)C1 (stereo partly shown) [1,3-O-Diacetyl-1,25-Dihydroxy-16-ene-24-Keto-19-nor-Cholecalciferol] | 0.617 | 300 | 
[2H]C([2H])([2H])C(O)(CCC[C@@H](CC#CC(O)(C(F)(F)F)C(F)(F)F)C1CCC2/C(=C/C=C3C[C@@H](O)C[C@H](O)C3)CCC[C@@]21C)C([2H])([2H])[2H] (stereo partly drawn) [1,25-Dihydroxy-21(3-hydroxy-3-trifluoromethyl-4-trifluoro-butynyl)-26,27-hexadeutero-19-nor-20S-cholecalciferol] | 31600 | 0.2 | 
C=C1/C(=C\C=C2/CCC[C@@]3(C)C2CCC3C(CCCC(C)(C)O)CCC(O)C(C)(C)O)C[C@@H](O)C[C@@H]1O (stereo partly drawn) [1,25-Dihydroxy-21-(2R,3-dihydroxy-3-methyl-butyl)-20R-Cholecalciferol] | 24 | 30 | 
CC(C)(O)CCCC(CCCC(C)(C)O)[C@H]1CC[C@H]2/C(=C/C=C3C[C@@H](O)C[C@H](O)C3)CCC[C@]12C [1,25-dihydroxy-21-(3-hydroxy-3-methylbutyl)-19-nor-cholecalciferol] | 9.77 |  | 
C=C1/C(=C\C=C2/CCC[C@]3(C)C(C4(C/C=C/C(O)(C(F)(F)F)C(F)(F)F)CC4)=CCC23)CC(O)C[C@@H]1O (stereo partly drawn) [1α,25-Dihydroxy-16-ene-20-cyclopropyl-23,24-E-ene-26,27-hexafluoro-cholecalciferol] | 1.58e-05 | 0.3 | 
C=C1/C(=C\C=C2/CCC[C@]3(C)C(C4(C/C=C\C(O)(C(F)(F)F)C(F)(F)F)CC4)=CCC23)CC(O)C[C@@H]1O (stereo partly drawn) [1α,25-Dihydroxy-16-ene-20-cyclopropyl-23,24-Z-ene-26,27-hexafluoro-cholecalciferol] | 0.0794 | 1 | 
C=C1/C(=C\C=C2/CCC[C@]3(C)C(C4(CC#CC(O)(C(F)(F)F)C(F)(F)F)CC4)=CCC23)CC(O)C[C@@H]1O (stereo partly drawn) [1α,25-Dihydroxy-16-ene-20-cyclopropyl-23,24-yne-26,27 hexafluoro cholecalciferol] | 3550 | 0.3 | 
C=C1/C(=C\C=C2/CCC[C@]3(C)C(C4(CCCC(C)(C)O)CC4)=CCC23)CC(O)C[C@@H]1O (stereo partly drawn) [1α,25-Dihydroxy-16-ene-20-cyclopropyl-cholecalciferol] | 0.017 | 1 | 
CC(=O)OC1C/C(=C/C=C2\CCC[C@]3(C)C(C(C)C/C=C\C(O)(C(F)(F)F)C(F)(F)F)=CCC23)C[C@@H](OC(C)=O)C1 (stereo partly shown) [Compound C, 1,3-di-O-acetyl-1,25-dihydroxy-16,23Z-diene-26,27-hexafluoro-19-nor-cholecalciferol] | 0.0398 | 0.1 | amplitude of non-voiding bladder contractions, change versus control [3, 5]: Dramatic reductions; bladder capacity, change versus control [3, 5]: did not result in a change; filling pressure, change versus control [3, 5]: statistically significant reductions; number of non-voiding bladder contractions, change versus control [3, 5]: Dramatic reductions; threshold pressure, change versus control [3, 5]: statistically significant reductions; Bl. Cap. (bladder capacity) ([3]; oral 0.1 μg/kg daily for 14 days, individual rats RB7, RB13, RB15, three micturition cycles each): 1.9 ml and 1.3 ml (2×) and 2.5 ml and 1.5 ml and 0.7 ml (2×) and 0.8 ml and 1.4 ml; # of NVBC (number of non-voiding bladder contractions) [3, 6]: 4 and 8 (2×) and 0 (6×); FP (filling pressure) [3, 6]: 15 cmH2O and 14 cmH2O (3×) and 12 cmH2O and 11 cmH2O and 10 cmH2O and 13 cmH2O (2×); MP (micturition pressure) [3, 6]: 105 cmH2O and 97 cmH2O (2×) and 90 cmH2O and 100 cmH2O and 108 cmH2O and 98 cmH2O and 101 cmH2O and 104 cmH2O; TP (threshold pressure) [3, 6]: 16 cmH2O and 17 cmH2O and 14 cmH2O (4×) and 12 cmH2O and 11 cmH2O and 15 cmH2O; amplitude of NVBC (amplitude of non-voiding bladder contraction) [3, 6]: 10 and 11 (2×) and 0 (6×)
C=C1CC[C@H](O)C/C1=C/C=C1\CCC[C@]2(C)[C@@H]([C@H](C)CCCC(C)C)CC[C@@H]12 [vitamin D3, reference compound] |  |  | BPH cell proliferation [4]: inhibited
